Tests used:
[1] = tested on: rat aorta; experiment: Rat Aorta Protocol: relaxation of phenylephrine-contracted rat aorta rings (endothelium removed); type: cell-based
Protocol: Such vasorelaxation appears to be related to inhibition of the phosphodiesterase (PDE) isozyme related to the cardiac sarcoplasmic reticulum. Thus, relaxation of rat aorta can be used as a screen to eliminate compounds which are not PDE inhibitors prior to testing for actual inotropic activity.
Rings of rat aorta (endothelium removed) were prepared for the measurement of isometric force in isolated tissue organ chambers essentially as previously described by T. J. Rimele et al in the Journal of Pharmacol. Exo. Ther. 245:102-111 (1988). The experimental portion of the protocol began with the addition of methylene blue (1×10^-5 M) and propranolol (1×10^-6 M) to each organ chamber to inhibit basal cGMP accumulation due to soluble guanylate cyclase and beta-adrenoceptors.Phenylephrine (1×10^-7 M) was then added and the rings were allowed to obtain a stable contractile response after which time, the test compound was added in a cumulative fashion. The relaxation induced by each concentration of the test compound was expressed as a percentage of the maximal relaxation produced by nitroprusside (1×10^-4 M). The results were graphically represented as a plot of the percentage relaxation vs. the negative log of the molar concentration of the test compound. […]

[2] = tested on: barbiturate-anesthetized dogs; experiment: Anesthetized Dog: inotropic effect (increase in baseline left ventricular dP/dt); type: in vivo
Protocol: (§1) Inotropic effects were evaluated in barbiturate-anesthetized dogs by differentiating left intraventricular pressure. This procedure was carried out essentially as described by M. K. Grizzel et al in the FASEB Journal, Vol. 3, page 1039, abstract 4728 (1989). Purpose breed mongrel dogs (14-20 kg) of either sex were anesthetized with a mixture of sodium pentobarbital (15 mg/kg) and sodium barbital (300 mg/kg) i.v., intubated with a cuffed endotracheal tube and ventilated with a respirator (Harvard Apparatus, model 613, South Natick, Mass.) with room air (22 rpm, 10-12 ml/kg/stroke). […] Cardiac output was determined via thermodilution with a Spectramed computer (Starcom., Oxnard, Calif.) and a 5F Swan Ganz catheter which was inserted into the right jugular vein and positioned in the pulmonary artery. […] A lead II electrocardiogram was measured using subcutaneous electrodes. […] Rectal temperature was monitored and maintained at 37°-38° C. with a heating pad (Baxter Health Care model K20, McGaw Park, Ill.). All variables were recorded using a Gould 3800S physiograph.
(§2) Isoproterenol (0.1-0.5 μg/kg) was injected i.v. into the cephalic vein at 10 min intervals except for when the test drug infusion was begun. […] Inhibition of the isoproterenol responses on contractility (dP/dt), heart rate and diastolic blood pressure were determined at each dose of test compound. […]

[3] = tested on: barbiturate-anesthetized dogs; experiment: Anesthetized Dog: beta-blocking effect (inhibition of the dP/dt response to isoproterenol); type: in vivo; settings: Canis lupus familiaris, iv, infusion, isoproterenol 0.1-0.5 μg/kg i.v.
Protocol: as §1, §2

[4] = tested on: guinea pig left atria; experiment: Guinea Pig Left Atria Test: direct effect on force of atrial contraction; type: cell-based; settings: Cavia porcellus, propranolol and phentolamine (1.0 micromolar each) present
Protocol: This test is carried out as generally described by T. P. Kenakin et al in Journal of Cardiovascular Pharmacology 101, 658-666 (1987) and in the Journal of Pharmacology and Experimental Therapeutics, Vol. 213, 406-413 (1980).
Male Hartley guinea-pigs (300-400 grams) were sacrificed by cervical dislocation or carbon dioxide asphyxiation. The hearts were immediately removed and placed in oxygenated Krebs-Henseleit buffer (composition (millimolar): Na^+ 143, K^+ 5.9, Ca^++ 1.25, Mg^++ 1.2, Cl^- 128, HCO3^- 25, SO4^-- 1.2, H2 PO4^- 1.0, and D-glucose 10). Left atria were dissected away from the remainder of the heart and mounted on holders against platinum punctate electrodes. The mounted atria were placed in tissue baths maintained at 31° C. and oxygenated with 95% 02 -5% CO2 under 1.0 gram resting tension. […] Contractions were detected with a force displacement transducer and recorded on a physiograph. […]
Direct effects of the test compounds on the force of atrial contraction were observed and recorded after addition of the compounds to the tissue bath. […] Responses to the test compounds and forskolin were expressed as a percentage of the maximal response to forskolin. EC50 values for the test compounds were calculated as the concentration of the compound necessary to produce an inotropic response half that of the maximal response produced by the test compound.

[5] = molecular target: T1, Beta-1 adrenoceptor (Rattus norvegicus, UniProt P18090); experiment: Beta Adrenoceptor Binding Assays: displacement of [I-125]-Pindolol from rat brain cortical membranes; settings: pH 7.6, 22° C., two hr, read-out: pIC50 (negative log of the IC50) (converted)
T1 construct: rat brain cortices were used as the source of membrane vesicles; from tissue; host or cells: rat brain cortex membranes
T1 sequence (P18090 whole entry): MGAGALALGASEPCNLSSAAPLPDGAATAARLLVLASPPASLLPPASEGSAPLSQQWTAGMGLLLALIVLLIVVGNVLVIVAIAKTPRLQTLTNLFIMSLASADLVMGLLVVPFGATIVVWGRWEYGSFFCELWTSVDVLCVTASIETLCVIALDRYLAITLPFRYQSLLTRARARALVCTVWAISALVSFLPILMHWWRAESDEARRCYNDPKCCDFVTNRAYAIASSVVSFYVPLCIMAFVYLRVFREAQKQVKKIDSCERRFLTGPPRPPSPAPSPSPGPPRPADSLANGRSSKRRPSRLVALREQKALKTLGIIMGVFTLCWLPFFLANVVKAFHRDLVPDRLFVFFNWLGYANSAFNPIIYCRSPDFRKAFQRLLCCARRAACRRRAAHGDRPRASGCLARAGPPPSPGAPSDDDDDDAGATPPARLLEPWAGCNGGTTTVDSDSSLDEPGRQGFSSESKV
Protocol: Because of its receptor density rat brain cortices were used as the source of membrane vesicles to be used in the receptor binding assays. Freshly excised cortexes were homogenized in 20 volumes (w/v) 50 mM TRIS HCl Buffer (pH 7.5), with a glass/Teflon homogenizer following the procedure previously described by T. J. Rimele in J. Pharmacol Exp. Ther. 239: 1-8, 1986. Beta-1 adrenoceptor binding activity was determined following methods described by M. H. Randall, et al, J. Med. Chem. 20: 1090-1094, 1977, and J. Homberger, et al in Mol. Pharmacol. 20: 453-469, 1981. The incubation mixture consisted of; 26 μl of 50 mM TRIS/HCl, 10 mM MgCl2 pH 7.6 buffer, 25 μl of test drug or 10-6 pindolol to define nonspecific binding, 100 μl of [I-125]-Pindolol (2200Ci/mM) at a final concentration of 10-9, and 100 μl of brain cortical membranes. The mixture was incubated at RT (22 ° C.) for two hr in the dark. The reaction was stopped by filtration of the mixture through buffer soaked glass fiber membranes (GF/B) using an cell harvesting device (Skatron Inc.). The radioactivity in each filter containing the trapped membrane particles was counted with a gamma counter. […] All specific binding values obtained in the presence of test compounds were expressed as the percentage of specific binding displaced by the individual agents. […]

[6] = tested on: rat aorta; settings: literature, R. F. Kauffman et al., J. Pharmacol. Exp. Ther. 242:864-872 (1987); cited from earlier work

| IC50 ([1]; rat aorta rings, endothelium removed, phenylephrine 1×10^-7 M, methylene blue and propranolol present, read-out: IC50 (concentration of test compound which produced a relaxation equivalent to 50% of the maximal relaxation induced by nitroprusside)) [µM] | EC50 ([4]; guinea pig left atria, 31° C., read-out: ED50 (concentration producing an inotropic response half that of the maximal response produced by the test compound)) [µM] | IC50 [5] [µM] | Structure (SMILES) | Emax at 100 µM ([1]; Rattus norvegicus, at the highest dose tested (100 micromolar), read-out: maximal response (relaxation as percentage of the maximal relaxation produced by nitroprusside)) [%] | ED50 ([2]; Canis lupus familiaris, iv, infusion, compared to baseline prior to drug infusion, read-out: inotropic ED50 (50% increase in dP/dt)) [µmol/kg] | inotropic effects at higher doses, sensitivity to atenolol ([2]; higher doses, atenolol) | ED50 [3] [µmol/kg] | Emax at 100 µM ([4]; at 100 micromolar, read-out: maximal response (percentage of the maximal response to forskolin)) [%] | relaxation of rat aorta [6] |
| --- | --- | --- | --- | --- | --- | --- | --- | --- | --- |
| 23 | 13 | 0.02 | Cc1[nH]c(=O)c(C#N)cc1-c1ccc(OCCCC(=O)NCCNCC(O)COc2ccccc2)cc1 (stereo not shown) [Example 2, 5-{4-[N-[2-(3-Phenoxy-2-hydroxypropylamino)ethyl]carbamoylpropyloxy]phenyl}-6-methyl-2-oxo-1,2-dihydro-3-pyridinecarbonitrile] | 97 | 0.04 | not blocked by atenolol | 0.055 | 36 | – |
| – | – | – | CSc1ccc(C(=O)c2[nH]c(=O)[nH]c2C)cc1 [enoximone] | – | – | – | – | – | marked relaxation |
| – | – | – | Cc1[nH]c(=O)c(C#N)cc1-c1ccncc1 [milrinone] | – | – | – | – | – | marked relaxation |

From patent US5051431A, “Pyridone nitriles useful in treating cardiovascular disease” (Glaxo Inc., priority 1990, dated 1991)
